The values below come from patent US11331368B2, “Angiotensin receptor agonists and uses thereof” (Monash University, priority 2017, dated 2022).

One assay has as its target T1, human AT2R (Homo sapiens, UniProt P50052).
T1 construct: expressed in transfected cells
T1 sequence (P50052 1-363): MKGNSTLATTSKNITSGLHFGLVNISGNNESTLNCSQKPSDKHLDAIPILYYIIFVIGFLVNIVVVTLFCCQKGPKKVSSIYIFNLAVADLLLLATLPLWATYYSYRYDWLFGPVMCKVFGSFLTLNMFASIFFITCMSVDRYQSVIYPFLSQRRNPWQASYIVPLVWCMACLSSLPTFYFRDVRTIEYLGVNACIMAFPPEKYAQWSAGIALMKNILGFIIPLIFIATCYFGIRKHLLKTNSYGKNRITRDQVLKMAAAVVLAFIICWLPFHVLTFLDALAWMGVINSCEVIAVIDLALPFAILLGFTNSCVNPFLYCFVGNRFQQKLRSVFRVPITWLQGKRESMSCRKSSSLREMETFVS
The experiment in a line: Competition radioligand binding (125I-Sar1-Ile8-AngII) in AT2R-transfected HEK-293 cells. Particulars: for Fold AT2R selectivity: AT2R over AT1R, Table 3.

The target in the next assay is T2, human AT1R (Homo sapiens, UniProt P30556).
T2 construct: expressed in transfected cells
T2 sequence (P30556 1-359): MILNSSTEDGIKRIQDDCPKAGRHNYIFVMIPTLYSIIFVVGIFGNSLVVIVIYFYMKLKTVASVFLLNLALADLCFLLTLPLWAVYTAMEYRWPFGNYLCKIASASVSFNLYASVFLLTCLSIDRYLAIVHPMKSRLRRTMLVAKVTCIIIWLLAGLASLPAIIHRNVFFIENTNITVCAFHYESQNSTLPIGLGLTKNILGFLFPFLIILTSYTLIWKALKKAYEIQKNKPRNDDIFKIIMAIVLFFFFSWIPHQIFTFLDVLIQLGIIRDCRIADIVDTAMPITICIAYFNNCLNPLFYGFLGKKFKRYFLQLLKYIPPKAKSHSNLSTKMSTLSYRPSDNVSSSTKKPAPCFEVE
The experiment in a line: Competition radioligand binding (125I-Sar1-Ile8-AngII) in AT1R-transfected HEK-293 cells.

Assay [1] relates to male FVB/N mice on high salt diet, heart. In words: High salt (5%) diet intervention model, heart. Type of assay: in vivo, mouse. The conditions noted are these: Cand 2 mg/kg/day; for MMP-13 protein expression in heart (Western blot) / macrophage infiltration/expression in heart (F4/80) / expression of P-IκBα (marker for NFκB activation) in heart: weeks 5-8, captopril 3 mg/kg/day; for MMP-13 protein expression in heart (Western blot) / macrophage infiltration/expression in heart (F4/80): peptide 75 pmol/kg/min s.c.; for expression of P-IκBα (marker for NFκB activation) in heart: peptides 75 pmol/kg/min s.c.; for cardiac fibrosis (picrosirius red): weeks 5-8 of high salt diet, peptides 75 pmol/kg/min s.c. mini-pump, captopril 3 mg/kg/day in drinking water. How it is done:
(§1) C) In the intervention (or reversal) model, male FVB/N mice were treated with selective AT2Rs agonists after the establishment of cardiovascular disease using a high salt diet, in order to reverse cardiovascular pathologies. In some experiments, the ACE inhibitor captopril (dose) or the ARB candesartan cilexetil (dose) were given for 4 weeks in drinking water. Organs examined included heart, kidney and liver and these were compared to either untreated mice or high salt-fed mice that were treated with saline.
A high-salt diet (5% salt) model is a clinically relevant and disease-reversal model which can replicate the high salt intake by humans which is currently a growing problem in the developed countries. High salt intake induces changes in the cardiovascular system and induces remodelling and fibrosis in the heart, kidney and liver.
(§2) Mice were placed on either a normal rodent diet (0.35% NaCl) which acted as control or a high salt diet (5% sodium in food chow) for 8 weeks. After 4 weeks, mice were also treated subcutaneously (via osmotic mini-pump) with either saline or an AT2R agonist (75 pmol/kg/min subcutaneously) for 4 weeks. Mice continued to be fed a high salt diet whilst receiving these treatments.
All mice which underwent surgery were anaesthetized with Isoflurane (Isorrane) (5% induction and 2.5% maintenance) and an incision made in the midscapular region through which osmotic minipumps (Alzet model 2004, Alza Corp) were inserted for subcutaneous drug administration. The incision area was sutured with 6/0 DY silk (Dynek Pty Ltd) and antibiotic powder applied (Cicatrin, Pfizer) followed by intramuscular injection of the analgesic Cartrophen (0.1 ml of a 1.5 mg/ml stock solution; Biopharm Australia). Systolic blood pressure (SBP) was measured using non-invasive tail-cuff plethysmography apparatus (MC4000 Blood Pressure Analysis System, Hatteras Instrument Inc) before drug treatment (week 0), and then fortnightly. At the end of the 8 week treatment period mice were weighed before being killed by overdose of isoflurane inhalation and cervical dislocation.
To measure collagen deposition, frozen sections of heart, kidney or aorta (all 5 μm thickness) were air dried for 10 minutes and were brought through 3 times xylene (2 minutes each), and 3 times absolute alcohol washes before being rinsed in tap H2O for 30 seconds. Staining with an optimal concentration of picrosirius red (in this instance 0.05% picrosirius red diluted in saturated picric acid) was performed and left for an hour. Sections were then rinsed in water and differentiated in 0.01M HCl for 2 minutes, followed by dehydration via 3 times absolute alcohol washes. Then, slides were brought through 3 times xylene washes before being cover slipped according to standard histological techniques using DPX as the mounting medium. Images were taken under ×20 magnification, using bright field (Olympus, BX51) and circularized polarized light microscopy (DM IRB, Leica) while percentage of positive interstitial collagen staining per total field of view was quantified using ImageJ 1.46 software (Java, NIH), and averaged out from a total of eight views as the final percentage collagen content in a particular animal.
Immunostaining was performed on 5 μm thick transverse frozen heart sections. These sections were air dried and fixed in ice-cold acetone for approximately 15 minutes before washing with 0.01M PBS buffer (3×10 minutes). Sections were then incubated with 10% goat serum in 0.01M PBS for 30 minutes to reduce non-specific binding. If the primary antibody is raised in goat, this pre-blocked medium is substituted with 5% BSA in PBS and Triton-X. Next, blocking buffers were removed and the primary antibody to respective markers were applied overnight at room temperature based on the following dilution and origin of the antibodies: α-SMA (1:500, Abcam), Vimentin (1:500, Santa Cruz), P-IκBα (1:200, Cell Signalling), F4/80 macrophage (1:100, Serotec). […]

Assay [2] concerns male FVB/N mice on high salt diet, liver. The experiment in a line: High salt (5%) diet intervention model, liver. Type of assay: in vivo, mouse. The conditions noted are these: weeks 5-8; peptides 75 pmol/kg/min s.c.; Cand 2 mg/kg/day, captopril 3 mg/kg/day. How it is done:
as §1, §2
Liver sections used either picrosirius red staining or Masson's trichome staining as described above. Higher concentrations of picrosirius red were often used under polarized light microscopy. The liver was removed and sectioned with half of the liver placed in 10% formalin and the rest frozen in liquid nitrogen before being stored in ˜80° C. freezer for future use. Formalin fixed, paraffin embedded livers were sectioned at thickness of 4 μm and were stained with Masson's trichrome according to standard procedures for analysis of liver fibrosis. […] Sections were re-fixed in Bouin's solution for 1 hour at 56° C. to improve staining quality then rinsed in running tap water for 5-10 minutes to remove yellow colour. Following this, sections were stained in Weigert's iron hematoxylin working solution for 10 minutes. Rinsed in running warm tap water for 10 minutes. Washed in distilled water. Stained in Biebrich scarlet-acid fuchsin solution for 10-15 minutes.
Washed in distilled water. Differentiated in phosphomolybdic-phosphotungstic acid solution for 10-15 minutes or until collagen was no longer red. Sections were transferred directly (without rinse) to aniline blue solution and stained for 5-10 minutes. Rinsed briefly in distilled water and differentiated in 1% acetic acid solution for 2-5 minutes. Washed in distilled water. […] Mounted with DPX mounting medium. Quantification of liver fibrosis was performed using images captured with the Aperio scanner (Monash Histology Platform, Monash University), with ×5 magnification. Each liver section had 5 different fields of view photographed at this magnification. Percentage of interstitial and perivascular collagen was analysed and quantified using ImageJ 1.48 software (Java, NIH), and the percentage from 5 random fields of view were averaged for final percentage of collagen for that particular animal. All analysis of collagen expression was conducted in a blinded fashion.

Procedure for human AT2R: This will lead to the generation of IC50 values that determine the relative ability of test compounds to interact with both Angiotensin receptors.
Cells were grown to approximately 80% confluence before being re-plated into 48 well plates at 1×10^5 cells/well and grown for 48 hours at 37° C. for a whole cell competition binding assay. [125I]-Sar1Ile8Ang II at 50,000 cpm, incubated for 45 minutes at 37° C., in the absence or presence of unlabeled ligands, prepared in binding buffer (DMEM, 0.1% BSA), were used in the competition assays at concentrations ranging from 1 μM to 10 μM. For each experiment, each ligand concentration was tested in duplicate or triplicate, and each experiment was repeated at least 3 separate times. […] The ability of each ligand to inhibit specific binding of [125I]-Sar1Ile8Ang II was measured on a gamma counter with all counts corrected for NSB.

Regarding “Arg-Val-Tyr-Ile-His-β-Pro-Ala [βPro-Ala-8-Ang III]”, the “Fold AT2R selectivity” value on human AT2R worked out at 200 fold.

The compound `CC[C@H](C)[C@H](NC(=O)[C@H](Cc1ccc(O)cc1)NC(=O)[C@@H](NC(=O)[C@H](N)CCCNC(=N)N)C(C)C)C(=O)N[C@@H](Cc1c[nH]cn1)C(=O)N1CCC[C@H]1C(=O)N[C@@H](Cc1ccccc1)C(=O)O` [D-Arg-Ang III, D-Arg-Val-Tyr-Ile-His-Pro-Phe] displayed an IC50 on human AT1R (125I-Sar1-Ile8-AngII) greater than 10 µM. Further, the “Fold AT2R selectivity” value at human AT2R came out at 400 fold.

As to `CC[C@H](C)[C@H](NC(=O)C[C@H](Cc1ccc(O)cc1)NC(=O)[C@@H](NC(=O)[C@@H](N)CCCNC(=N)N)C(C)C)C(=O)N[C@@H](Cc1c[nH]cn1)C(=O)N1CCC[C@H]1C(=O)N[C@@H](Cc1c[nH]c2ccccc12)C(=O)O` [βTyr-Trp-8-Ang III, Arg-Val-β-Tyr-Ile-His-Pro-Trp], at human AT1R, the “binding at AT1R (displacement of 125I-Sar1-Ile8-AngII), in words” value is on record as “bind poorly”. Besides, the “binding at AT2R (displacement of 125I-Sar1-Ile8-AngII), in words” value at human AT2R (transfected HEK-293 cells) is “high affinity”.

As for `C[C@H](CS)C(=O)N1CCC[C@H]1C(=O)O` [captopril, reference compound], in assay [1], the “MMP-13 protein expression in heart (Western blot)” value was “Neither captopril nor Cand altered MMP-13 levels”, the “macrophage infiltration/expression in heart (F4/80)” value is recorded as “reversed by all agents”, the “expression of P-IκBα (marker for NFκB activation) in heart” value is reported as “reversed only by β-Ile^5-Ang II” and the “cardiac fibrosis (picrosirius red)” value is listed as “also reversed fibrosis”. In assay [2], the “liver fibrosis (picrosirius red, polarized light)” value is on record as “similarly inhibited the pro-fibrotic effects of high salt in the liver” and the “liver steatosis (Oil Red O)” value is on record as “significantly reduced excess lipid accumulation”.

On to “Tetrazole-CONH-Arg-Val-Tyr-Ile-His-β-Pro-Trp [Tet-βPro-Trp-8-Ang III]”, for which the “Fold AT2R selectivity” value at human AT2R was >275,000 fold.

Take “β-Arg-Val-Tyr-Ile-His-Pro-Trp [βArg-Trp-8-Ang III]”: the “Fold AT2R selectivity” value on human AT2R came out at 1854 fold.

Take `CCOc1nc2cccc(C(=O)OC(C)OC(=O)OC3CCCCC3)c2n1Cc1ccc(-c2ccccc2-c2nnn[nH]2)cc1` (centres unmarked) [candesartan cilexetil, reference compound]: in assay [1], the “MMP-13 protein expression in heart (Western blot)” value was “Neither captopril nor Cand altered MMP-13 levels”, the “macrophage infiltration/expression in heart (F4/80)” value was “reversed by all agents”, the “expression of P-IκBα (marker for NFκB activation) in heart” value is “reversed only by β-Ile^5-Ang II” and the “cardiac fibrosis (picrosirius red)” value was “did not significantly reduce fibrosis”.

In the case of “Tetrazole-CONH- Arg-Val-Tyr-Ile-His- β-Pro-Phe [Tet-βPro-Ang III]”, at human AT2R, the “Fold AT2R selectivity” value is reported as >60,000 fold.

In the case of “Arg-Val-Tyr-β-Ile-His-Pro-Trp [βILe-Trp-8-Ang III]”, the “Fold AT2R selectivity” value on human AT2R is greater than 2500 fold.

Regarding “Nicotinamido-Arg-Val-Tyr-Ile-His-β-Pro-Trp [Nic-βPro-Trp-8-Ang III]”, the “Fold AT2R selectivity” value at human AT2R was >15,000 fold.

A word on the IC50: it is the concentration that inhibits the measured activity by half. Low readings indicate higher potency, high ones lower potency.
